# Measured values published in patent US7183099B2, “Inhibitors of autoinducer transporters” (Princeton University, priority 2001, dated 2007).
# “Also recorded” adds a separate entry of the source.
# Assays:
# [1] = system: V. harveyi reporter strain BB170 (Sensor 1−, Sensor 2+); assay type: cell-based, Vibrio harveyi
# Description: Cell-free culture fluids from E. coli, S. typhimurium and V. harveyi strains were tested for the presence of signaling substances that could induce luminescence in the V. harveyi reporter strain BB170 or BB886. […] Positive control wells contained 10 μl of cell-free culture fluid from strain V. harveyi BB152 (Autoinducer-1^−, Autoinducer-2^+) or V. harveyi BB120 (Autoinducer-1^+, Autoinducer-2^+). Negative control wells contained 10 μl of sterile growth medium. The microtiter dishes were shaken in a rotary shaker at 175 rpm at 30° C.
# The cell density was measured by diluting the same aliquots of cells used for measuring luminescence, spreading the dilutions onto solid LM medium, incubating the plates overnight at 30° C., and counting the resulting colonies the following day. […] Cell-free culture supernatants from V. harveyi or S. typhimurium strains were added to a final concentration of 10% (v/v) at the time of the first measurement. In control experiments, 10% (v/v) of AB medium, LB medium or LB medium containing 0.5% glucose was added instead of cell-free culture fluids.
# [2] = system: lsr operon (lsr-lacZ fusions); assay: β-galactosidase assay of lsr::MudJ (lacZ) fusions; assay type: cell-based, S. typhimurium
# Description: Various S. typhimurium lsr::MudJ fusion strains were grown to late exponential phase in LB medium supplemented with AI-2 prepared by our in vitro method at an approximate concentration of 70 μM. This is roughly twice the concentration of AT-2 that we estimate to be present in S. typhimurium cell-free supernatants (not shown). As a control, we performed the same experiment with material from in vitro reactions carried out with SAH and Pfs enzyme in the absence of the LuxS enzyme. This reaction produces adenine and SRH. Homocysteine was added to this control mixture following the reaction to compensate for the homocysteine that would be produced by LuxS. Therefore, the only component absent from the control reaction was AI-2.
# Cultures of S. typhimurium that had been grown overnight were diluted 1:100 into fresh LB and grown for 4 hours. For strains containing plasmids, cultures were diluted in LB supplemented with Amp. When necessary, AI-2 was synthesized in vitro and added to the growth media at the time of inoculation (Schauder et al., 2001). Cells from 1 ml of these cultures were harvested and resuspended in 1 ml Z buffer. P-galactosidase assays were performed using a microtitre plate assay, as described (Slauch and Silhavy, 1991). β-galactosidase units were calculated as (0.1*mOD420/min)/[OD600 of cells*Volume (ml)]. All assays were performed in triplicate.
# metE-lacZ fusion = metE-lacZ fusion transcription; assay type: cell-based, S. typhimurium
# Description: The insertion sites of the eight luxS regulated MudJ fusions were determined by arbitrary PCR amplification of the MudJ-chromosome fusion junctions, followed by BLAST database analysis (Caetano-Anolles, 1993; Altschul et al., 1990). One MudJ insertion was located in the metE gene. MetE is involved in the biosynthesis of methionine, that is a precursor of SAM (Weissbach and Brot, 1991). Specifically, MetE catalyzes the final step in methionine biosynthesis in the absence of vitamin B12. Transcription of metE is induced when the substrate homocysteine is available and when the intracellular concentration of methionine is low (Urbanowski and Stauffer, 1989). We reason that metE is not a true target of AI-2 regulation, but instead metE transcription is induced in the wild type luxS strain relative to the luxS null strain because homocysteine is produced during the generation of AI-2 in the LuxS^+ strain.
# wild type S. typhimurium = assay: Growth on AI-2 as sole carbon source; assay type: cell-based
# Description: One possibility is that AI-2 is initially used as a signal, then, at subsequent times, when AI-2 is no longer required for signal transduction, S. typhimurium internalizes it for use as a carbon source. To test this idea, we attempted to grow wild type S. typhimurium on in vitro prepared AI-2 as a sole carbon source. […] Therefore, growth on AI-2 cannot account for its disappearance from the medium. A second possibility is that the removal of AI-2 activity is required for its modification to another signal. For example, the LsrE epimerase, or another enzyme, could convert AI-2 into an internal signal. Finally, AI-2 could be internalized for degradation. In this case, elimination of AI-2 could serve to terminate the signalling process. Signal production coupled to subsequent elimination could allow S. typhimurium the flexibility to transition between several modes of existence. For example, as AI-2 is associated with the presence of many species of bacteria, high levels of AI-2 could be indicative of the transition from outside a host to the intestinal environment, whereas low levels of AI-2 could signal S. typhimurium that it has exited the intestinal tract for the next location in the infection (i.e., the macrophage) where S. typhimurium is not in association with high numbers of commensal bacteria. […]
# rck::MudJ fusion (SdiA) = assay: SdiA regulated rck::MudJ fusion assay; assay type: cell-based; conditions: AI-2 from E. coli or S. typhimurium; sdiA+ and sdiA− backgrounds
# Description: For ftsQ regulation in E. coli, the plasmids pMS207 and pMS209 were transformed into E. coli strain MC4100 (Silhavy et al., 1984, supra), and the transformants were grown overnight in LB containing 100 mg/L ampicillin at 30° C. with aeration. For rck regulation, S. typhimurium strains BA1105 (rck::MudJ) and BA1305 (rck::MudJ sdiA) were grown overnight in LB containing 100 mg/L kanamycin at 30° C. with aeration. The overnight cultures were diluted 20-fold into fresh medium and grown for an additional 4.5 h. At this time, each culture was divided into five identical aliquots and 10% (v/v) of one of the following was added to each aliquot: LB, 0.4 M NaCl, […] osmotic shock fluids from S. typhimurium LT2, E. coli O157 or E. coli strain DH5 (negative control). The osmotic shock fluids were prepared as described above, following pregrowth of the S. typhimurium LT2 and E. coli in LB containing 0.5% glucose for 6h. The cell suspensions were incubated at 30° C. for 2 h, after which standard -galactosidase reactions were performed on the samples (Miller, A Short Course in Bacterial Genetics, Cold Spring Harbor Laboratory Press, 1992).
# [3] = S. typhimurium cell-free spent culture fluids; cited from earlier work
smiles,measurement,setting,value
"CC(=O)C(=O)C(O)CO (stereo not drawn) [AI-2, 4,5-dihydroxy-2,3-pentanedione]",signaling activity degraded,[1]; 0.4 M NaCl shock fluid activity incubated 2 h with S. typhimurium cells pre-incubated in 0.1 M NaCl,greater than 98%
same,input AI-2 activity (induction of V. harveyi bioluminescence reporter),"[1]; in vitro prepared AI-2 added to S. typhimurium culture, chilled immediately",1000 fold
same,stimulation in light production in the bioassay,"[1]; in vitro reaction: dialyzed LuxS− cell extract + SAM + LuxS protein, MW<5000 filtrate",over 500 fold
same,expression of the lsr-lacZ fusions,"[2]; strains lacking luxS, 70 μM exogenous AI-2",induces the expression of the lsr-lacZ fusions to levels above that when wild type luxS is present
same,expression of the lsr-lacZ fusions,"[2]; wild type luxS strains, exogenous AI-2 added",additional stimulation of the expression of the lsr-lacZ fusions
same,effect of exogenous AI-2 on transcription of the metE-lacZ fusion,metE-lacZ fusion,did not affect the transcription of the metE-lacZ fusion
same,growth on in vitro prepared AI-2 as a sole carbon source,wild type S. typhimurium,could not grow on AI-2
same,change in β-galactosidase production of rck::MudJ,rck::MudJ fusion (SdiA),No change
same,stability of AI-2 in cell-free culture fluids,[3],stable for long periods of time; also recorded: remains active for long periods of time
